Measured values taken from PMC9822400, “The Lipophilic Purine Nucleoside—Tdp1 Inhibitor—Enhances DNA Damage Induced by Topotecan In Vitro and Potentiates the Antitumor Effect of Topotecan In Vivo” (Molecules, 2022).
“Also recorded” adds a separate entry of the source.

Test system: HeLa cells
Assay: Alkaline Comet assay, accumulation of DNA damage
Assay type: cell-based
Conditions: for Amount of DNA damage (% DNA in tail) in combination with Tpc compared to only Tpc: 10 μM Tpc + compound; for DNA in tail: 1 h; for Effect of the compound alone on the integrity of DNA: compound alone in concentrations up to 1 mM, compared to untreated or 1% DMSO
Description: We studied the effect of Tdp1 inhibitors 5f and 6d on the accumulation of DNA damage by single-cell gel electrophoresis (Comet assay). […] This method has proven to be a simple, fast, and a quite sensitive way to detect DNA damage at the level of a single cell, allowing one to analyze almost any eukaryotic cell culture. Several analysis options allow one to visualize various types of DNA damage: single- and double-stranded breaks and alkaline-labile sites. This allows this method to be widely used in fundamental studies of DNA damage and repair and in testing the genotoxicity of new chemical and pharmaceutical drugs in vitro and in vivo [51, 52]. To study potential drugs, the alkaline version of the method (pH > 13) proposed by Singh and co-authors is widely used. This method allows the detection of all types of DNA damage with high sensitivity. In cells with a large amount of DNA damage, the structural organization and integrity of DNA are disrupted, which leads to its relaxation and/or fragmentation. As a result, cellular DNA in an electric field gives the observed objects the appearance of a “comet”.
Before studying the effect of Tdp1 inhibitors on the accumulation of DNA damage, it was necessary to find out how long the generation of DNA damage by Tpc and their repair take place in HeLa cells. To do this, cell culture was treated with Tpc at 1, 10, and 100 μM concentrations for 30 min, 1, 2, and 3 h and the level of damage to individual cells was monitored by Comet assay. It was shown that Tpc caused the greatest amount of damage after 30 minutes’ treatment. After this time, the repair systems began to correct these lesions and as a result, after 3 h most of them have been eliminated (Figure S9). […] The level of DNA damage at this point was enough to be detected, the data were reproducible, and can be evaluated by the Comet assay. The effect could be enhanced by the tested compounds without leading to cell death. It was important for us to see this enhancement in the presence of our compounds.
HeLa cell culture was grown in a 24-well plate to a concentration of 0.05 million/mL, then treated with the tested compounds and incubated for 1 h. To obtain a cell suspension, the cells were treated with trypsin (30 µL in each well for 5 min at 37 °C), and then 200 µL of PBS + 10% FBS were added to each well.
The resulting cell suspension (50 µL) was mixed with 250 µL of a 1% solution of molten low melting agarose (CertifiedTM LMAgarose; BIO-RAD), 250 µL of this mixture was transferred to the slides pre-coated with a 1% normal melting agarose (Agarose; Helicon), and left for several minutes at 4 °C to solidify. The resulting slides were incubated in a lysing solution (2.5 M NaCl, 100 mM EDTA, 10 mM Tris base, 1% Triton, 5% DMSO, pH 10.0) for an hour at 4 °C. Then the slides were immersed in an electrophoretic buffer (300 mM NaOH, 1 mM EDTA, pH > 13) for 45 min at 4 °C. Electrophoresis was performed at 20 V, 450 mA for 10 min while cooling on ice. After that, the slides were immersed 2 times for 5 min in 0.4 M Tris-HCl pH 7.5 solution for neutralization, washed twice with cold water, and stained with SYBR Green I (excitation maximum at 497 nm, emission maximum at 520 nm; Thermo Fisher Scientific KK).
The images were obtained using a CELENA © S digital microscope (Logos Biosystems, Inc., Annandale, VA, USA) and analyzed with Comet analysis software (Trevigen, Inc., Gaithersburg, MD, USA. In all experiments, 2 slides were evaluated for each sample by counting at least 200 cells on the glass. As a parameter for measuring the level of DNA damage, the median value of the percentage of DNA in the tail was chosen (% Tail DNA = 100 × the intensity of DNA fluorescence in the tail of the comet/the intensity of fluorescence of the total DNA of the comet).

[1] = compound 10 μM + Topotecan 10 μM
[2] = compound 50 μM + Topotecan 10 μM
[3] = compound 200 μM + Topotecan 10 μM

SMILES	Amount of DNA damage (% DNA in tail) in combination with Tpc compared to only Tpc	Reduction of the topotecan dose required to produce a serious level of DNA damage (Tpc 1 μM + 6d 5 μM similar to only Tpc 10 μM) [times]	DNA in tail [1] [%]	DNA in tail [2] [%]	DNA in tail [3] [%]	Effect of the compound alone on the integrity of DNA
O=C(OC[C@H]1O[C@@H](n2cnc3c(Cl)nc(Cl)nc32)[C@H](OC(=O)c2ccccc2)[C@@H]1OC(=O)c1ccccc1)c1ccccc1 [compound 6d, 2,6-dichloro-9-(2,3,5-tri-O-benzoyl-β-D-ribofuranosyl)purine]	increased the amount of DNA damage	10	50±2	65±6	71±4	did not affect the integrity of DNA; also recorded: does not cause DNA damage by itself
O[C@@H]1[C@H](O)[C@@H](COC(c2ccccc2)(c2ccccc2)c2ccccc2)O[C@H]1n1cnc2c(NC(c3ccccc3)(c3ccccc3)c3ccccc3)ncnc21 [compound 5f]	did not significantly differ	–	37±3	40±3	42±4	did not affect the integrity of DNA
